Tests used:
[1] = tested on: HBeAg; settings: for HBeAg reduction HepG2.2.15 cells: 10 nM siRNA transfected into cells
Description: HBeAg in the cell culture media was assessed using ELISAs.
(§1) The ability of siRNAs targeting host factors that then results in the reduced production of multiple HBV molecules was evaluated by quantifying the amount of HBsAg, HBeAg, and Core protein produced by HepG2.2.15 cells after contacting with 10 nM of siRNAs that target HNRNPA2B1, GRP78, RPLP1, RPLP2, and SRSF1. We also contacted the cells with 5 nM of each set of siRNAs that targets both RPLP1 and RPLP2. The level of HBsAg, HBeAg, and Core were all determined using ELISAs.
(§2) The library of siRNAs of Example A5 were tested for the reduction of HBsAg secreted by HepG2.2.15 cells and in HBV virions.

[2] = tested on: RPLP2 mRNA; assay: Target mRNA reduction by RT-qPCR in HepG2.2.15 cells; type: cell-based, human; settings: 10 nM siRNA
Excerpt: The siRNAs identified as described in Example A6 should function by a mechanism that includes being loaded in the RISC complex to cleave the cognate mRNA, leading to the degradation of the mRNA. To examine whether the siRNAs are effective in reducing the target mRNA, we used reverse transcription coupled with quantitative polymerase chain reaction (RT-qPCR) to assess the level of the target mRNA in HepG2.2.15 cells. All 32 siRNAs described in Table 2 reduced the mRNA by more than 75% (Table 3).

[3] = tested on: HCoV-OC43; assay: OC43 virion RNA, Branched DNA assay, infected HCT8 cells; type: cell-based, human coronavirus OC43; settings: for OC43 vRNA reduction siRNA and siGRP78: 10 nM siRNA along with 10 nM of siRNA targeting GRP78, HCT8 cells; for OC43 vRNA reduction: 10 nM siRNA, HCT8 cells
Description: The siRNAs were transfected in the HCT8 cells at a final concentration of 10 nM. A positive control for the inhibition of Coronavirus infection, Remdesivir (Rem), was used at 0.9 μM. The virion RNAs (vRNAs) were quantified using a Branched DNA assay specific for OC43 RNA.
The two siRNAs are those referred to by compound number (see Table 2) in the horizontal bar, along with siRNA targeting GRP78, siGRP78. A positive control for the inhibition of Coronavirus infection, Remdesivir (Rem), was used at 0.9 μM. The vRNAs were quantified using a Branched DNA assay specific for OC43 RNA.
The siRNAs listed in Table 2 were transfected into human colon epithelial HCT8 cells and the amount of OC43 virion produced was quantified. In these assays, the OC43 vRNA was quantified using a Branched DNA assay (QuantiGene gene expression assay: ThermoFisher). As a positive inhibitory control, the infected cells were treated with Remdesivir. […] Examples of the inhibition of OC43 vRNA are illustrated in FIG. 5A.
A combination of siRNAs targeting the host factor should more robustly reduce OC43 virion production. To illustrate this, HCT8 cells were transfected with 10 nM of siRNAs from Table 2 along with 10 nM of siRNA targeting GRP78. The virion RNAs produced were quantified using the Branched DNA assay. […] A combination of siRNAs targeting host factors GRP78, SRSF1, RPLP1 and RPLP2 can lead to significant reduction in the production of human Coronavirus virion RNA from infected cells.

[4] = tested on: HBsAg; settings: HepG2.2.15 cells; for EC50: read-out: EC50, Extracell. HBsAg reduction
Description: (§3) Cell viability was assessed by ATP levels determined using the CellTiter-Glo reagent and the results normalized to the level in mock-treated cells. HBsAg levels were quantified using ELISA and the data normalized to the level in the mock-treated cells.
The cellular proteins GRP78/BIP, SRSF1, HNRNPA2B1, RPLP1, and RPLP2 were identified as having roles in HBV replication and infection. Various siRNAs and combinations thereof targeting the RNAs encoding these proteins were contacted with HepG2.2.15 cells at a final concentration of 7.5 nM.
The EC50 values of several siRNAs and combinations of siRNAs targeting HNRNPA2B1, GRP78, RPLP1, RPLP2, and/or SRSF1 were determined with respect to the ability to reduce HBsAg levels in HepG2.2.15 cells.
as §1, §2

[5] = tested on: RPLP2 protein; assay: Target protein reduction by Western blot in HepG2.2.15 cells; type: cell-based, human; settings: 10 nM siRNA, 72 h
Description: The host factors likely function in viral infection as proteins. Therefore, we determined whether the siRNAs could decrease the amounts of the target protein. Cell transfected with 10 nM of each siRNA for 72 h were lysed and the target proteins identified using Western blots probed with target-specific antibodies. The effective siRNAs described in Table 3 reduced the levels of the proteins by between 28 and 92% of the mock-treated samples. The reduction in the proteins is less than the reduction of the target mRNA, likely due to the proteins have prolonged half-life and that more time is needed for their degradation. […] We reason that this is due to RPLP1 and RPLP2 functioning as heterodimers such that a decrease of one protein increases the vulnerability of the other protein to degradation. Similar concomitant decrease of the proteins was reported by Campos et al. (17). Finally, the levels of two cellular proteins that are not targeted by the siRNAs, P54nrb and GAPDH, were unaffected.

[6] = tested on: HepG2.2.15 cells; assay: HepG2.2.15 cell viability, CellTiter-Glo; settings: for CC50: read-out: CC50, HepG2.2.15 cell viability, highest concentration tested 80 nM
Description: as §3
The effects on cell viability were quantified using the CellTiter-Glo reagent. All data were normalized to the amount of protein produced by mock-treated cells.
as §2

Substance	HBeAg reduction HepG2.2.15 cells [1]	Target RNA reduction in HepG2.2.15 cells [2]	OC43 vRNA reduction siRNA and siGRP78 [3]	EC50 [4]	Target protein reduction in HepG2.2.15 cells [5]	CC50 [6]	OC43 vRNA reduction [3]	HBeAg level, siRNA library ([1]; HepG2.2.15 cells, Example A6, FIG. 5A)	HBsAg level, dose response ([4]; FIG. 5A)	cytotoxicity / cell viability, siRNA library ([6]; up to the highest concentration tested, 80 nM)
52 (CAAGGUUAUCAGUGUGCUGTTCAGCACACUGAUAACCUUGTT; siRNA; Self-complementary hairpin strand, chemistry not given here, further chemistry not given here; listed as Homo sapiens) [compound 52]	54 ± 5%	98 ± 1%	91 ± 2%	60 pM	58 ± 1%	> 80000 pM				
41 (AUGGGAUUUGGCCUUUUUGAUUUAUCAAAAAGGCCAAAUCCCAUUU; siRNA; Self-complementary hairpin strand, chemistry not given here, further chemistry not given here; listed as Homo sapiens) [compound 41]	40 ± 4%	97 ± 1%	81 ± 7%	208 pM	58 ± 2%	> 80000 pM	89 ± 5%			
48 (GCGCCAAGGACAUCAAGAATTUUCUUGAUGUCCUUGGCGCAA; siRNA; Self-complementary hairpin strand, chemistry not given here, further chemistry not given here; listed as Homo sapiens) [compound 48]	32 ± 5%	97 ± 0%	88 ± 5%	100 pM	54 ± 8%	> 80000 pM				
44 (UGAGCUGAAUGGAAAAAACAUUUAUGUUUUUUCCAUUCAGCUCAUU; siRNA; Self-complementary hairpin strand, chemistry not given here, further chemistry not given here; listed as Homo sapiens) [compound 44]	30 ± 4%	99 ± 1%	92 ± 2%	84 pM	59 ± 11%	> 80000 pM				
51 (GAAGAUCUUGGACAGCGUGTTCACGCUGUCCAAGAUCUUCTT; siRNA; Self-complementary hairpin strand, chemistry not given here, further chemistry not given here; listed as Homo sapiens) [compound 51]	32 ± 4%	98 ± 0%	90 ± 2%	100 pM	56 ± 5%	> 80000 pM				
34 (GCUGAAUGGAAAAAACAUUGATTAAUGUUUUUUCCAUUCAGCUCTT; siRNA; Self-complementary hairpin strand, chemistry not given here, further chemistry not given here; listed as Homo sapiens) [compound 34]	74 ± 4%	93 ± 1%	86 ± 5%	150 pM	62.5 ± 3%	> 80000 pM	86 ± 3%	inhibited the levels of HBsAg and HBeAg	dose-dependent reduction of HBV S-antigen (HBsAg)	without affecting cell viability
37 (CUGAAUGGAAAAAACAUUGAAUUUUCAAUGUUUUUUCCAUUCAGUU; siRNA; Self-complementary hairpin strand, chemistry not given here, further chemistry not given here; listed as Homo sapiens) [compound 37]	53 ± 3%	98 ± 1%	88 ± 5%	49 pM	71 ± 10%	> 80000 pM	94 ± 2%			
46 (GAAAGAUGAGAAGAAGGAGGAUUUCCUCCUUCUUCUCAUCUUUCUU; siRNA; Self-complementary hairpin strand, chemistry not given here, further chemistry not given here; listed as Homo sapiens) [compound 46]	44 ± 5%	98 ± 1%	87 ± 4%	1100 pM	56 ± 8%	> 80000 pM				
36 (CCUUUUUGAUUAAAUUCCUGCTTAGGAAUUUAAUCAAAAAGGCCTT; siRNA; Self-complementary hairpin strand, chemistry not given here, further chemistry not given here; listed as Homo sapiens) [compound 36]	26 ± 5%	94 ± 1%	87 ± 6%	9200 pM	57 ± 3%	> 80000 pM				
38 (AGUGUACCUGCUGGUGGGGCUUUAGCCCCACCAGCAGGUACACUUU; siRNA; Self-complementary hairpin strand, chemistry not given here, further chemistry not given here; listed as Homo sapiens) [compound 38]		96 ± 1%	61 ± 14%	76 pM	55 ± 2%	> 80000 pM	39 ± 6%			

Source: patent US11613750B2, “Methods of reducing virus molecule levels” (priority 2019, dated 2023)
